Measured values taken from US7342021B2, “Phosphodiesterase 4 inhibitors” (Memory Pharmaceuticals Corp., priority 2001, dated 2008).
Structures can show the parent of a compound that is named as a salt.

What was measured:
rats [1] = assay: Radial arm maze task in rats, an in vivo test for learning and memory; set-up: species or system rat; details: MK-801 0.1 mg/kg i.p., compared to control, p<0.01
Description: The test was performed as previously described (Zhang, H.-T., Crissman, A. M., Dorairaj, N. R., Chandler, L. J., and O'Donnell, J. M., Neuropsychopharmacology, 2000, 23, 198-204.). Five days after initial housing, rats (male Spraque-Dawley (Harlan) weighing 250 to 350 g) were placed in the eight-arm radial maze (each arm was 60×10×12 cm high; the maze was elevated 70 cm above the floor) for acclimation for two days. Rats were then placed individually in the center of the maze for 5 minutes with food pellets placed close to the food wells, and then, the next day, in the wells at the end of the arms; 2 sessions a day were conducted. Next, four randomly selected arms were then baited with one pellet of food each. The rat was restricted to the center platform (26 cm in diameter) for 15 seconds and then allowed to move freely throughout the maze until it collected all pellets of food or 10 minutes passed, whichever came first. Four parameters were recorded: 1) working memory errors, i.e., entries into baited arms that had already been visited during the same trial; 2) reference memory errors, i.e., entries into unbaited arms; 3) total arm entries; and 4) the test duration (seconds), i.e., the time spent in the collection of all the pellets in the maze. […]
(§1) All data were analyzed by analyses of variance (ANOVA); individual comparisons were made using Kewman-Keuls tests. […]

rats [2] = assay: Passive avoidance in rats, an in vivo test for learning and memory; set-up: species or system rat; details: MK-801 0.1 mg/kg pretreatment, retention test 24 hours after electric shock, compared to the vehicle, p<0.001
Description: The test was performed as previously described (Zhang, H.-T., Crissman, A. M., Dorairaj, N. R., Chandler, L. J., and O'Donnell, J. M., Neuropsychopharmacology, 2000, 23, 198-204.). The apparatus (Model E10-16SC, Coulbourn Instruments, Allentown, Pa.) consisted of a two-compartment chamber with an illuminated compartment connected to a darkened compartment by a guillotine door. The floor of the darkened compartment consisted of stainless steel rods through which an electric foot-shock could be delivered from a constant current source. All experimental groups were first habituated to the apparatus the day before the start of the experiment. During the training, the rat (Male Spraque-Dawley (Harlan) weighing 250 to 350 g) was placed in the illuminated compartment facing away from the closed guillotine door for 1 minute before the door was raised. The latency for entering the darkened compartment was recorded. After the rat entered the darkened compartment, the door was closed and a 0.5 mA electric shock was administered for 3 seconds. […] The latency for entering the darkened compartment was recorded for up to 180 seconds, at which time the trial was terminated.
as §1

[3] = Solubility of the mesylate salt in H2O; format: physicochemical
Description: To obtain the methansulphonate salt (mesylate salt), 4 ml of 0.1N CH3SO3H in EtOAc was added to a solution of 145 mg (0.4 mmol) 6-cyclopropylamino-9-(2-fluorobenzyl)-2-trifluoromethylpurine in EtOAc. Then, 1 ml of hexane was added to a warm solution and the resultant mixture was allowed to crystallize (within a refrigerator). The solid was collected to give 148 mg of the mesylate salt. […] M.p. 167.5-169.0 C; m.p. 114-118 C for free base.

| Compound | reference memory errors (frequency) (rats [1]) | working memory errors (frequency) (rats [1]) | latency for entering the darkened compartment (rats [2]) | solubility in H2O [3] |
| --- | --- | --- | --- | --- |
| C[C@]12N[C@H](Cc3ccccc31)c1ccccc12 [MK-801] | increased the frequencies | increased the frequencies | markedly reduced this latency | – |
| Fc1ccccc1Cn1cnc2c(NC3CC3)nc(C(F)(F)F)nc21 [Example 4 mesylate salt, 6-cyclopropylamino-9-(2-fluorobenzyl)-2-trifluoromethylpurine] | – | – | – | relatively insoluble |
